Experimental data as given in patent US20070099854A1, “Use of pentadienoic acid derivatives for the treatment of hyperuricemia” (priority 2003, published 2007).

What was measured:
[1] = system: plasma uric acid concentration; assay: Hypouricemic effect of compound A in healthy male volunteers, single oral administration; assay type: in vivo, human (healthy male volunteers); settings: at 24 hours
Procedure: Hypouricemic effect of compound A in healthy male volunteers
Forty-eight healthy male volunteers received orally either EMD or a placebo as a single administration in the morning. Six doses were administered 50 mg, 100 mg, 200 mg, 400 mg, 800 mg and 1200 mg once daily. In each group of dose, 6 subjects received compound A and 2 subjects received a placebo. Plasma uric acid concentrations were assessed in all dose groups.
The drop of plasma uric acid concentration was around 45% for the lowest tested dose (50 mg) and the maximum effect was observed from the 800 mg dose (80%).
FIG. 1: Mean plasma uric acid concentration in each group of dose before and 24 hours after drug intake (single dose) in subjects receiving compound A.

melting point | Compound | further results
110 to 112 °C | CCOC(=O)/C=C(C)/C=C/C1=Cc2ccccc2OC1 [Example 3a] | –
226 to 228 °C | CC(/C=C/C1=Cc2ccccc2OC1)=C\C(=O)O [Example 3b] | –
164 to 166 °C | CC(/C=C/C1=Cc2ccccc2OC1(C)C)=C\C(=O)O [Example 4b] | –
176 °C | CC(=C/C(=O)O)/C=C/C1=Cc2ccccc2OC1(C)C [Example 5b] | –
258 to 260 °C | CC(/C=C/C1=C(c2ccccc2)c2ccccc2OC1)=C\C(=O)O [Example 7b] | –
216 to 218 °C | CC1=C(/C=C/C(C)=C/C(=O)O)COc2ccccc21 [Example 11b] | –
224 to 226 °C | CC(=C/C(=O)O)/C=C/C1=Cc2ccccc2OC1 [Example 12b] | –
200 to 202 °C | CC(/C=C/C1=Cc2ccccc2OC1c1ccccc1)=C\C(=O)O (centres unmarked) [Example 14b] | –
– | COc1ccc2c(c1)C(/C=C/C(C)=C/C(=O)O)=CC(C)(C)CO2 [compound A, (2E,4E)-5-(3,3-dimethyl-7-methoxy-2,3-dihydrobenzoxepin-5-yl)-3-methylpenta-2,4-dienoic acid] | drop of plasma uric acid concentration ([1]; 50 mg (lowest tested dose)): around 45%; change in plasma uric acid concentration ([1]; all dose groups 50-1200 mg): dose dependant decrease; drop of plasma uric acid concentration (maximum effect) ([1]; from the 800 mg dose): 80%
